# Assay results: ChEMBL document CHEMBL5260838 (J Med Chem, 2019)
# Key:
# [1] = biological target: Sodium channel protein type 1 subunit alpha (Homo sapiens, UniProt P35498); assay: Inhibition of human Nav1.1 alpha subunit expressed in HEK293 cells co-expressing beta1 subunit at -40 mV holding potential by PatchXpress automated voltage clamp electrophysiology technique; assay type: cell-based
# [2] = AUC in Sprague-Dawley rat at 5 mg/kg, po; assay type: ADME, organism-based; design: dose 5 mg/kg, route po; settings: in vivo
# [3] = biological target: Sodium channel protein type 10 subunit alpha (Mus musculus, UniProt Q6QIY3); assay: Inhibition of TTX-resistant Nav1.8 in mouse dorsal root ganglion neuron by voltage clamp recording; assay type: tissue-based, DRG neuron
# [4] = Half-life in Sprague-Dawley rat at 1 mg/kg, iv; assay type: ADME, organism-based; settings: in vivo
# [5] = Cmax in Sprague-Dawley rat at 5 mg/kg, po; assay type: ADME, organism-based; design: dose 5 mg/kg, route po; settings: in vivo
# [6] = AUC in FVB mouse at 30 mg/kg, po; assay type: ADME, organism-based; design: dose 30 mg/kg, route po; settings: in vivo
# [7] = biological target: T1, Peroxisome proliferator-activated receptor gamma (Homo sapiens) (UniProt P37231); assay: Inhibition of PPARgamma (unknown origin) at 10 uM relative to control
# T1 sequence (whole entry): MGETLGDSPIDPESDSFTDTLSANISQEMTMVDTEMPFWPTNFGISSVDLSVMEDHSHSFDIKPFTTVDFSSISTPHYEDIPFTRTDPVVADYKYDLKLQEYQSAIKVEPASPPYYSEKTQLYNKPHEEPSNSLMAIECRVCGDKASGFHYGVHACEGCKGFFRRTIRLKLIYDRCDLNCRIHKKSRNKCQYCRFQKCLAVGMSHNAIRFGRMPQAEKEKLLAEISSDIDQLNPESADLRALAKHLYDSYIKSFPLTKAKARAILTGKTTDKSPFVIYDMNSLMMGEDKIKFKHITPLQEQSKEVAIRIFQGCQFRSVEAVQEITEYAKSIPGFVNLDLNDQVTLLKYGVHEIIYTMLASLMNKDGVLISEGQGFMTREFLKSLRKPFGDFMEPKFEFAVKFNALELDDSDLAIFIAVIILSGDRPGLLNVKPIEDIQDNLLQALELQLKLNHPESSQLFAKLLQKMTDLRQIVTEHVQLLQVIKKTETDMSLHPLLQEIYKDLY
# [8] = AUC in Beagle dog at 1 mg/kg, po; assay type: ADME, organism-based, Canis lupus familiaris; design: dose 1 mg/kg, route po; settings: in vivo
# [9] = test system: mouse breast cancer resistant protein (Bcrp); assay: Efflux ratio of apparent permeability across basolateral to apical side over apical to basolateral side MDCK-II cells expressing mouse breast cancer resistant protein; assay type: ADME, cell-based, Canis lupus familiaris; settings: dog
# [10] = test system: Mus musculus; assay: Antinociceptive activity against aconitine-induced pain in FVB mouse model expressing human Nav 1.7 I848T mutant assessed as reduction in nociceptive behavior at 3 mg/kg, po administered 120 mins prior to aconitine administration and measured after 70 mins relative to control; assay type: functional; design: scale not given: the % may be the effect or the level left; settings: time 190 min, 3.167 h
# [11] = test system: Mus musculus; assay: Antinociceptive activity against aconitine-induced pain in FVB mouse model expressing human Nav 1.7 I848T mutant assessed as reduction in nociceptive behavior at 1 mg/kg, po administered 120 mins prior to aconitine administration and measured after 70 mins relative to control; assay type: functional; design: scale not given: the % may be the effect or the level left; settings: time 190 min, 3.167 h
# [12] = Volume of distribution at steady state in Sprague-Dawley rat at 1 mg/kg, iv; assay type: ADME, organism-based; settings: in vivo, read-out: Vdss
# [13] = biological target: Cytochrome P450 3A4 (Homo sapiens, UniProt P08684); assay: Inhibition of CYP3A4 (unknown origin); assay type: ADME
# Cytochrome P450 3A4, sequence (P08684 whole entry): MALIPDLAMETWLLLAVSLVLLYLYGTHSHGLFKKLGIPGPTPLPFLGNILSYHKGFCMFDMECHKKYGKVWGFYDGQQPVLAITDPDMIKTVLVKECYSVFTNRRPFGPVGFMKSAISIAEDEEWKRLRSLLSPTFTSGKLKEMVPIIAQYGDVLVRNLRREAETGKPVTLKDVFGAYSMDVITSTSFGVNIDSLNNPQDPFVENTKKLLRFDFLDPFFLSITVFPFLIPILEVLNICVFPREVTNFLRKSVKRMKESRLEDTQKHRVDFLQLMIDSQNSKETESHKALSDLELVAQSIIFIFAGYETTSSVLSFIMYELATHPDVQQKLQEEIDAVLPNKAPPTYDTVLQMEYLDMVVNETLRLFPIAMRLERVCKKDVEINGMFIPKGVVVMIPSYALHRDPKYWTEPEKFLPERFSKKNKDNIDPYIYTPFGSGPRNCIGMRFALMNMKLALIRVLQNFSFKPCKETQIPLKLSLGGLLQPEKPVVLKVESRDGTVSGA
# [14] = biological target: Sodium channel protein type 9 subunit alpha (Mus musculus, UniProt Q62205); assay: Inhibition of mouse Nav1.7 at -60 mV holding potential by PatchXpress automated voltage clamp electrophysiology technique
# [15] = biological target: Sodium channel protein type 9 subunit alpha (Rattus norvegicus, UniProt O08562); assay: Inhibition of rat Nav1.7 at -60 mV holding potential by PatchXpress automated voltage clamp electrophysiology technique
# Sodium channel protein type 9 subunit alpha (Rattus norvegicus, UniProt O08562), sequence (O08562 whole entry): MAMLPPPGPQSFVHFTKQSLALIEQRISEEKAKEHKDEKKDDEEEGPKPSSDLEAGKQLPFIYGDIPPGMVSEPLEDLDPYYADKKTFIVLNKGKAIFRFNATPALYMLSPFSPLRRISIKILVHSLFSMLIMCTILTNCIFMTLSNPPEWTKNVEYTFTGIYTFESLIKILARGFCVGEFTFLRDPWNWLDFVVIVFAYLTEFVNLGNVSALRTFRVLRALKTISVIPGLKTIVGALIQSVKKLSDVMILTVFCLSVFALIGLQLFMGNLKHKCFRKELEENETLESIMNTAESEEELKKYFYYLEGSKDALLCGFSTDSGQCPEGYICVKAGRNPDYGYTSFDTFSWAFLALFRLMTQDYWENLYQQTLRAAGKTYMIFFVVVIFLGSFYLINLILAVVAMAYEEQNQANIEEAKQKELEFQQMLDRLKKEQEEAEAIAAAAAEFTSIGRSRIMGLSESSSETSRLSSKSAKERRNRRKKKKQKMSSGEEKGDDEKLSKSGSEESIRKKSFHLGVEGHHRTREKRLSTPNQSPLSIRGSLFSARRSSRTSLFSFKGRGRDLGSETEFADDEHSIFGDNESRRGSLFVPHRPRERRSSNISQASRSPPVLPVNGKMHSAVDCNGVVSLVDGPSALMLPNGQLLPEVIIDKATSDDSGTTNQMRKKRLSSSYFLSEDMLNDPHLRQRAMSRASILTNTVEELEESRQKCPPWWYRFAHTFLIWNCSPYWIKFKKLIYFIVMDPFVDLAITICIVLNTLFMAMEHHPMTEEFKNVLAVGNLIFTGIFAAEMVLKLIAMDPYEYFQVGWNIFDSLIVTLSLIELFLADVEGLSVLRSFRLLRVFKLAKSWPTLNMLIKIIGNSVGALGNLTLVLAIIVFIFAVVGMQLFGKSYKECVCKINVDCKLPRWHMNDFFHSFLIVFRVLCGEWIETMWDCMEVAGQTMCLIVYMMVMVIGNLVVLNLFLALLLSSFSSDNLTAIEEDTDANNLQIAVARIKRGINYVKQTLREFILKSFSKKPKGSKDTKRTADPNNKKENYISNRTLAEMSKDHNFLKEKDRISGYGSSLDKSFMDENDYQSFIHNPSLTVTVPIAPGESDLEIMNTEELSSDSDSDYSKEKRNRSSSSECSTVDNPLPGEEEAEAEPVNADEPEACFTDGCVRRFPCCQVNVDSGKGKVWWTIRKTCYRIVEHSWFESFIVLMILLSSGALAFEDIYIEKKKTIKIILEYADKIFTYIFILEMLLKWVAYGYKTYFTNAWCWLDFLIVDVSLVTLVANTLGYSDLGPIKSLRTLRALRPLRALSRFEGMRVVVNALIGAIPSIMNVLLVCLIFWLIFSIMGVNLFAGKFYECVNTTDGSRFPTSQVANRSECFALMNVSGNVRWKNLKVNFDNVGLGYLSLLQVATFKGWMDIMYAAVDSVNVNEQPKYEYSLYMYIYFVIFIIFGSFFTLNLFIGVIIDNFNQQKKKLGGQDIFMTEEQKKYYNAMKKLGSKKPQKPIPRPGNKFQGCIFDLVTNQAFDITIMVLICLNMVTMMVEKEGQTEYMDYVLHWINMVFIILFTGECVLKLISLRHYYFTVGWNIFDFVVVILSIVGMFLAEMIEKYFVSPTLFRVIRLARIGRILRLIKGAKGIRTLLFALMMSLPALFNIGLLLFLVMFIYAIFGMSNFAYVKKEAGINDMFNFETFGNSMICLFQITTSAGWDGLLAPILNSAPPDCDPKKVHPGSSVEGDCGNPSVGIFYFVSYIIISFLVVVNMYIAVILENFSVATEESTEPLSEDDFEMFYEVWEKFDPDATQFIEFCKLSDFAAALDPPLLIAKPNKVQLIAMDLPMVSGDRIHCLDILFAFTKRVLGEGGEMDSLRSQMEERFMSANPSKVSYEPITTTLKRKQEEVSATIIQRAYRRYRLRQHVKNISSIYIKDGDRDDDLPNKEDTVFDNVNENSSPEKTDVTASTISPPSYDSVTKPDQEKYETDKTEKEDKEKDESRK
# [16] = biological target: Sodium channel protein type 10 subunit alpha (Mus musculus) (UniProt Q6QIY3); assay: Inhibition of TTX-resistant Nav1.8 in mouse dorsal root ganglion neuron at 10 uM by voltage clamp recording relative to control; assay type: tissue-based; settings: DRG neuron
# [17] = test system: MDR1; assay: Efflux ratio of apparent permeability across basolateral to apical side over apical to basolateral side in MDCK1 cells expressing MDR1; assay type: ADME, cell-based, Canis lupus familiaris; settings: dog, MDCK-MDR1
# [18] = biological target: Cytochrome P450 2C19 (Homo sapiens, UniProt P33261); assay: Inhibition of CYP2C19 (unknown origin); assay type: ADME
# Cytochrome P450 2C19, sequence (P33261 whole entry): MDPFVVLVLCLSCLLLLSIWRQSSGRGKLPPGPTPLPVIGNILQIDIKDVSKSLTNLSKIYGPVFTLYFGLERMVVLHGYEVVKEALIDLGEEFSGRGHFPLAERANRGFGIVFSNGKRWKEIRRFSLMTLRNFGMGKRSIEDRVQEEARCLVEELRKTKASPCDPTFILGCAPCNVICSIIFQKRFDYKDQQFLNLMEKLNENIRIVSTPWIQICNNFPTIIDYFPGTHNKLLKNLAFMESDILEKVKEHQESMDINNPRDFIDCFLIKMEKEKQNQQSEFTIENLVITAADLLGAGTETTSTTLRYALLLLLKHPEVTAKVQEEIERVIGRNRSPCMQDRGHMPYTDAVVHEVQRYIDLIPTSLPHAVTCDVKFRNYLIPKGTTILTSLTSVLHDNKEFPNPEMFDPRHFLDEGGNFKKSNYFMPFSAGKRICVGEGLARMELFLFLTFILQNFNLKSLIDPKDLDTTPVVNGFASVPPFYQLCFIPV
# [19] = biological target: T2, Cytochrome P450 1A2 (Homo sapiens, UniProt P05177); assay: Inhibition of CYP1A2 (unknown origin); assay type: ADME
# T2 sequence (P05177 whole entry): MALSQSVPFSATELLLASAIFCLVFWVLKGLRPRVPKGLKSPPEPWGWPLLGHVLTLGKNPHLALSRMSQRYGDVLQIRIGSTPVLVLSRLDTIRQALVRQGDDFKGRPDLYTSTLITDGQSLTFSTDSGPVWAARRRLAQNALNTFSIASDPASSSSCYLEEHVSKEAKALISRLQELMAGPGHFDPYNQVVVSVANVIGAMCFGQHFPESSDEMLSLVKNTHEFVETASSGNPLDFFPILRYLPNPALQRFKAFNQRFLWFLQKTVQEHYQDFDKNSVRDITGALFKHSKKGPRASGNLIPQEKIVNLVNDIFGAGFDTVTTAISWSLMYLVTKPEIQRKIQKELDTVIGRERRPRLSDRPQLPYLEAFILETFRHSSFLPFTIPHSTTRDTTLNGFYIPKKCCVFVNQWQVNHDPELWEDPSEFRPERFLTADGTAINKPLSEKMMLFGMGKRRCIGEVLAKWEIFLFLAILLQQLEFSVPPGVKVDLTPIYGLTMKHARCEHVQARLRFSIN
# [20] = biological target: Cytochrome P450 2D6 (Homo sapiens, UniProt P10635); assay: Inhibition of CYP2D6 (unknown origin); assay type: ADME
# Cytochrome P450 2D6, sequence (P10635 whole entry): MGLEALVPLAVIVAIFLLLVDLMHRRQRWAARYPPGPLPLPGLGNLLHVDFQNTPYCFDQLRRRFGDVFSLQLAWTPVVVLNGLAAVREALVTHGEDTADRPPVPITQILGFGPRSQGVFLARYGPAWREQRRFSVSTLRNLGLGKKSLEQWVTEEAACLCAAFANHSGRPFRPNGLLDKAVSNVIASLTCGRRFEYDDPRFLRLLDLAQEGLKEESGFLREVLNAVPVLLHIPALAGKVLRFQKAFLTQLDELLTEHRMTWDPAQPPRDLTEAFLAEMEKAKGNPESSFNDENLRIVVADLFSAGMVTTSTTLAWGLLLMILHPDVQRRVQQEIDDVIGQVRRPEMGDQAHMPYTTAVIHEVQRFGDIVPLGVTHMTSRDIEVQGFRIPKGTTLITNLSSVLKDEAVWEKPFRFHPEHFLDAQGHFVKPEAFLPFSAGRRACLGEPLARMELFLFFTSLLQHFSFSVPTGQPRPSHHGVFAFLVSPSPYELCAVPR
# [21] = Oral bioavailability in FVB mouse at 30 mg/kg; assay type: ADME, organism-based; settings: in vivo
# [22] = Unbound plasma concentration in FVB mouse model of aconitine-induced pain expressing human Nav1.7 I848T mutant at 0.3 mg/kg, po administered 120 mins prior to aconitine administration and measured after 70 mins by UPLC-ESI MS/MS analysis; assay type: ADME, organism-based; settings: in vivo, 3.167 h, time 190 min
# [23] = biological target: Cytochrome P450 2C9 (Homo sapiens, UniProt P11712); assay: Inhibition of CYP2C9 (unknown origin); assay type: ADME
# Cytochrome P450 2C9, sequence (P11712 whole entry): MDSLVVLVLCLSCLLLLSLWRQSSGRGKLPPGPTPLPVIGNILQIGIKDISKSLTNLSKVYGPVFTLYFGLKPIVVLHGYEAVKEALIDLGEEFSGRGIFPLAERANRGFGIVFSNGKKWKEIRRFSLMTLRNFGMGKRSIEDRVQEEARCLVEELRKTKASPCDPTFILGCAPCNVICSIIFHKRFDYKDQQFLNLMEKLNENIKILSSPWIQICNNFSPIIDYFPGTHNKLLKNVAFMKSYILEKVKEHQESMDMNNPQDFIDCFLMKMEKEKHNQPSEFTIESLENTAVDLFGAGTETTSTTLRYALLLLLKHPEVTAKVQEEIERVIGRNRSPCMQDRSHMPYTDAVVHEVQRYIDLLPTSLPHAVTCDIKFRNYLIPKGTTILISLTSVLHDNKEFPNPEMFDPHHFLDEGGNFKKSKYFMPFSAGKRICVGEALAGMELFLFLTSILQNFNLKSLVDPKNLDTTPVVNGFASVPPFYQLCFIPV
# [24] = Half-life in Beagle dog at 0.5 mg/kg, iv; assay type: ADME, organism-based, Canis lupus familiaris; settings: in vivo
# [25] = Half-life in FVB mouse at 30 mg/kg, po; assay type: ADME, organism-based; settings: in vivo
# [26] = Brain to plasma ratio in FVB mouse model of aconitine-induced pain expressing human Nav1.7 I848T mutant administered orally 120 mins prior to aconitine administered and measured after 70 mins by UPLC-ESI MS/MS analysis; assay type: ADME; settings: route po, time 190 min, read-out: BPR
# [27] = Kinetic solubility of compound; assay type: physicochemical; settings: read-out: Kinetic_solubility
# [28] = Volume of distribution at steady state in Beagle dog at 0.5 mg/kg, iv; assay type: ADME, organism-based, Canis lupus familiaris; settings: in vivo, read-out: Vdss
# [29] = Drug concentration in brain of FVB mouse model of aconitine-induced pain expressing human Nav1.7 I848T mutant at 10 mg/kg, po administered 120 mins prior to aconitine administered and measured after 70 mins by UPLC-ESI MS/MS analysis; assay type: ADME, organism-based; settings: time 190 min, read-out: Ct
smiles,measurement,setting,value
CC1(COc2cc(F)c(C(=O)NS(=O)(=O)C3CC3)cc2C2CC2)CCC2(CC1)CC2,IC50,[1],0.006 µM
same,AUC,[2],78 µM·h
same,IC50,[3],> 10 µM
same,half-life,[4],8.1 h
same,Cmax,[5],13 µM
same,AUC,[6],113 µM·h
same,inhibition,[7],91%
same,AUC,[8],83 µM·h
same,efflux ratio,[9],2.1
same,Activity,[10],98%
same,Activity,[11],86%
same,Vd,[12],0.88 L/kg
same,IC50,[13],> 10 µM
same,IC50,[14],0.0022 µM
same,IC50,[15],0.0037 µM
same,inhibition,[16],38%
same,efflux ratio,[17],1.2
same,IC50,[18],> 10 µM
same,IC50,[19],> 10 µM
same,IC50,[20],> 10 µM
same,bioavailability,[21],31%
same,Cp(f),[22],0.003 µM
same,IC50,[23],6.1 µM
same,half-life,[24],5.4 h
same,half-life,[25],9.2 h
same,Kp at 3.167 h,[26],0.08
same,solubility kinetic,[27],10 µM
same,Vd,[28],0.14 L/kg
same,concentration at 3.167 h,[29],6.2 µM
